IC50 data for 70 compounds are collected here from PubChem BioAssay AID1159559 (GlaxoSmithKline (GSK), 2015).

Structures are written as SMILES. pIC50: −log10 of the molar value. Calls of active or inactive are those of the source.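 Rule for the calls: active = compounds whose IC50 against parasite growth in infected mouse cells is below 50000 nM; inactive = the rest.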 A value given as a limit tells only on which side of the number the result lay.

For the assay, the system named is T. cruzi Tulahuen in NIH-3T3, beta-gal fluorescence, 4 d. Briefly: anti-Chagas amastigote proliferation inhibitors – cell-based (AID 1159559).

As a reminder, the pIC50 is −log10 of the IC50, conventionally taken in molar units. Regarding `O=C(Nc1nc2ccccc2[nH]1)c1ccc2nc[nH]c2c1`, the pIC50 was 4.60. In the case of `CCCn1c(NC(=O)CCn2cc(Br)cn2)nc2ccccc21`, the negative logarithm of the IC50 (pIC50) is 5.30.

As to `c1ccc2[nH]c(-c3ccc(N4CCCC4)nc3)nc2c1`, the pIC50 is 6.00.

For `CC(C)(C)c1cc(NC2CC2)nc(-c2ccccn2)n1`, the pIC50 is 5.89. For `O=C(NCCc1ccccc1Cl)c1cccn1-c1cccnc1`, the pIC50 was 6.40. Same read-out and setting: the result for `N#Cc1ccc(S(=O)(=O)N2CCN(Cc3cccc(-c4ccncc4)c3)CC2)cc1` reads 6.40. Turning to `O=C(c1cccc(Cl)c1Cl)N1CCn2c1nc(-c1ccncc1)cc2=O`, the pIC50 is 6.80. Same read-out and setting: then `O=c1ccn(-c2ccc([N+](=O)[O-])cc2Cl)c2ccc(F)cc12`, with 5.80; and `O=C(CN1CCN(S(=O)(=O)c2cccc([N+](=O)[O-])c2)CC1)Nc1ccc(Oc2ccccc2)cc1`, with 5.60. In the case of `Cc1ccc2onc(Nc3ccnc(Nc4cccc(S(C)(=O)=O)c4)n3)c2c1`, the pIC50 was 5.40.

On to `CN(Cc1cc2ccccc2s1)c1ncc2c(N)nc(N)nc2n1`, for which the pIC50 was 5.70.

In the case of `COc1ccc(-c2csc(NC(=O)c3ccc([N+](=O)[O-])s3)n2)cc1`, the pIC50 was 6.80. With `COc1cc2c(cc1OC)[C@H]1[C@@H](C)c3ccc(OC)c(OC)c3CN1CC2`, the pIC50 was 4.60. Broadly, the IC50 is the concentration that inhibits the measured activity by half. As for `O=c1cc(NCCCNCc2c[nH]c3ccc(Br)cc23)[nH]c2ccccc12`, the IC50 was > 50 µM (inactive). With `O=C(c1ccc(OCCCc2cnc[nH]2)cc1)C1CC1`, the pIC50 is 6.49. Regarding `Cc1ccc(C)c(CN2C(=O)NC3(CCc4ccccc43)C2=O)c1` (stereo not given), the pIC50 is 4.60. As for `COc1ccc(-c2csc(NC(=O)c3ccc([N+](=O)[O-])s3)n2)cc1OC`, the pIC50 is 7.00. As for `Cn1cncc1CN1CCC2(CC1)COC(Cc1ccccc1)C2` (stereo not given), the pIC50 is 6.49. Take `O=C(NC1CCN(C2Cc3ccc(NS(=O)(=O)c4cc(F)cc(F)c4)cc3C2)CC1)C1CC1` (stereo not given): the IC50 was > 50 µM (inactive). With `Cn1ccnc1-c1nc(NCc2ccccc2Cl)cc(C2CC2)n1`, the pIC50 is 6.20. For `Cc1cc(Oc2cc(Cl)c(Cl)cc2Cl)n2ncnc2n1`, the pIC50 was 5.30. With `O=c1ccc2ccc(F)c3c2n1C[C@H]3CN1CCC(NCc2cc3ccccc3o2)CC1`, the pIC50 is 6.40. The same measure, in the same setting: the result for `O=C(NCCc1cccnc1)c1ccc(-c2ccccc2F)o1` reads 7.00. As to `Cn1c(CN2CCN(c3ncc(C(F)(F)F)cc3Cl)CC2)nc2ccncc21`, the pIC50 is 6.10. Regarding `N#Cc1c(Oc2cccc(Cl)c2)cccc1[N+](=O)[O-]`, the pIC50 was 6.49. `O=C(c1cccc(Nc2ncc(-c3ccc4c(c3)OCO4)cn2)c1)N1CCOCC1`: the pIC50 is 5.20. The same measure, in the same setting: then `COc1ccc2nccc(NC(=O)C3(OC)CCN(CC(O)c4ccc5c(c4)OCCO5)CC3)c2n1` (stereo not given), with 6.60.

Take `O=C(c1cc2cc(Cl)ccc2[nH]1)N1CCCCC1c1cccnc1` (stereo not given): the pIC50 is 6.60. As to `O=C(CN(Cc1ccccn1)Cc1ccccn1)NCc1ccc2c(c1)OCO2`, the pIC50 is 5.10. On to `Cc1cnc(Nc2cc(Cc3ccccc3)nc(NC3CCC(O)CC3)n2)s1` (stereo not given), for which the pIC50 is 6.89.

In the case of `N#CN1CC[C@@H](NC(=O)Nc2ccccc2Oc2ccccc2)C1`, the pIC50 was 5.30. Same read-out and setting: then `COc1ccc(OC)c(NC(=O)c2ccc([N+](=O)[O-])o2)c1`, with 5.49.

In the case of `CCc1c(C)nc(-n2nc(C)cc2NC(=O)COc2ccccc2F)[nH]c1=O`, the pIC50 is 6.20.

In the case of `CS(=O)(=O)c1ccc(Nc2nccc(Nc3n[nH]c4ccc(F)cc34)n2)c(F)c1`, the negative-log IC50 (pIC50) is 5.10. Turning to `CCc1ccc2nc(NC(=O)c3cc(N4CCOCC4)ccn3)sc2c1`, the pIC50 is 5.60. With `CC(=O)Nc1cccc(Nc2ncnc3nc[nH]c23)c1`, the IC50 is > 50 µM (inactive).

Regarding `O=S(=O)(NCC(c1cccnc1)N1CCN(c2ccc(F)cc2)CC1)c1cccs1` (stereo not given), the pIC50 is 6.80. Regarding `N#Cc1cccc(Nc2nccc(N3CCC(NS(=O)(=O)c4cccc(C#N)c4)CC3)n2)c1`, the pIC50 was 5.80. Regarding `CC(=Cc1ccccc1)CN1CCC(=O)N(Cc2cccnc2)CC1`, the pIC50 was 6.60.

Take `c1ccc(Nc2nc(-c3ccccn3)cc(N3CCOCC3)n2)cc1`: the pIC50 is 5.70.

For the compound `N#Cc1cc(N2CCCC2=O)ccc1Sc1ccccc1CO`, the pIC50 was 6.60. Regarding `O=C(Nc1nccs1)c1ccccc1Cn1cc([N+](=O)[O-])cn1`, the IC50 was > 50 µM (inactive).

Turning to `O=C(NNC(=O)c1ccccn1)c1ccc(-c2ccccc2)cc1`, the pIC50 is 5.80. For `CCCCn1nnnc1CSc1nc(C)cc(C)c1C#N`, the pIC50 is 6.49.

Regarding `NC(=O)c1cc(F)ccc1Nc1nc(NC2CCC(O)CC2)ncc1Cl` (stereo not given), the pIC50 is 5.40. As for `Cn1nccc1-c1cc(OC(CN)c2ccccc2)cnc1-c1ccco1` (stereo not given), the pIC50 is 6.40. As for `Cc1cc(Nc2cc(C3CC3)[nH]n2)nc(N2CCCC2)n1`, the pIC50 is 7.10. `COc1ccc(NS(=O)(=O)c2cccc(NC(=O)c3cc(F)cc(F)c3)c2)cc1`: the pIC50 is 6.10. For `Clc1ccc(CN2CCN(C3=NCCN3)CC2)cc1Cl`, the pIC50 was 5.89.

On to `CCOc1ccc(N(C)S(=O)(=O)c2ccc3[nH]cc(C(=O)NC4CCCC4)c(=O)c3c2)cc1`, for which the pIC50 was 5.10. As to `Cc1ccc(Nc2nc(-c3ccccn3)cc(N3CCCC(O)C3)n2)cc1` (stereo not given), the pIC50 was 6.30. For `CC(C)c1cc(Nc2cc(Cc3ccccc3)nc(NC3CCC(O)CC3)n2)n[nH]1` (stereo not given), the pIC50 was 7.10. Same read-out and setting: then `Cc1nn(-c2nc3ccccc3s2)c2c1C(c1ccc(OCC(N)=O)cc1)SCC(=O)N2` (stereo not given), with 5.30. `COc1ccc2ncc(=O)n(CCN3CCC(NCc4ccc(-c5cccs5)cc4)CC3)c2n1`: the pIC50 is 5.70.

Regarding `Cc1cc2cncn2c(C2CCCCN2C(=O)c2cccs2)n1` (stereo not given), the pIC50 is 7.60. Take `CN(Cc1cccnc1)Cc1ccc(N2CCN(C(=O)C3(c4ccc(Cl)cc4)CC3)CC2)nc1`: the pIC50 was 6.30. The same measure, in the same setting: then `Cc1cc(N(C)C)nc(Nc2ccccc2C)n1`, with 5.80; and `COc1ccc(-c2cc(C)no2)cc1S(=O)(=O)Nc1ccc(C)c(C)c1`, with 5.30. Same read-out and setting: the result for `Cc1cc(NC(=O)CC2CCCCC2)n(-c2nc3c(c(=O)[nH]2)CCC3)n1` reads 6.60; that for `O=S(=O)(c1ccccc1C(F)(F)F)N1CCN(Cc2ccc(-n3ccnc3)cc2)CC1`, 6.60. In the case of `Cc1cc(Nc2ccc(C#N)c(Cl)c2C)n[nH]1`, the pIC50 was 4.60.

`COc1ccc([N+](=O)[O-])cc1NC(=O)c1cc(Cl)ccc1O`: the pIC50 was 4.49. Regarding `Cc1c(Nc2cc(C3CC3)[nH]n2)ccc(C#N)c1Cl`, the pIC50 is 5.60. Take `COc1ccccc1-n1c(SCC(=O)Nc2ccc3c(c2)OCO3)nc2c(c1=O)SCC2`: the pIC50 was 4.40. Still for that read-out and setting: then `Cc1ccccc1NS(=O)(=O)c1ccc2[nH]cc(C(=O)NC3CCCC(C)C3C)c(=O)c2c1` (stereo not given), with 5.30.

As for `CCC(c1ccc(F)cc1)n1cncc1-c1cnn(C)c1` (stereo not given), the pIC50 was 6.70. As for `COc1cc(-c2nc(N3CCOCC3)sc2-c2ccnc(NC3CCOCC3)n2)ccc1Cl`, the pIC50 is 6.60. `CS(=O)(=O)c1cccc(CNC(=O)c2cncc(N3CCN(c4ccc(F)cc4)CC3)c2)c1`: the pIC50 was 6.20. On to `CC(=O)NC1(c2ccccc2)CCN(CC(=O)Nc2ccccc2-c2ccccc2)CC1`, for which the pIC50 was 5.89.

`CCOC(=O)c1cn[nH]c1S(=O)(=O)N1CCC1c1ccccc1` (stereo not given): the IC50 was > 50 µM (inactive).
